What was measured:
[1] = target: Ribosomal protein S6 kinase alpha-5 (Homo sapiens) (UniProt O75582); assay: Selectivity interaction (Upstate Kinase Profiler service (Millipore)) EUB0000056c RPS6KA5; conditions: at 1 µM
[2] = target: Serine/threonine-protein kinase 38-like (Homo sapiens) (UniProt Q9Y2H1); assay: Selectivity interaction (ActivX KiNativ screen (kinase selectivity in THP-1 cell lysates)) EUB0000639a STK38L; format: subcellular; conditions: lysate
[3] = target: Serine/threonine-protein kinase PAK 6 (Homo sapiens) (UniProt Q9NQU5); assay: Selectivity interaction (Kinase panel (Invitrogen)) EUB0000639a PAK6; conditions: at 200 nM
Serine/threonine-protein kinase PAK 6 (Homo sapiens), sequence (Q9NQU5 whole entry, looked up): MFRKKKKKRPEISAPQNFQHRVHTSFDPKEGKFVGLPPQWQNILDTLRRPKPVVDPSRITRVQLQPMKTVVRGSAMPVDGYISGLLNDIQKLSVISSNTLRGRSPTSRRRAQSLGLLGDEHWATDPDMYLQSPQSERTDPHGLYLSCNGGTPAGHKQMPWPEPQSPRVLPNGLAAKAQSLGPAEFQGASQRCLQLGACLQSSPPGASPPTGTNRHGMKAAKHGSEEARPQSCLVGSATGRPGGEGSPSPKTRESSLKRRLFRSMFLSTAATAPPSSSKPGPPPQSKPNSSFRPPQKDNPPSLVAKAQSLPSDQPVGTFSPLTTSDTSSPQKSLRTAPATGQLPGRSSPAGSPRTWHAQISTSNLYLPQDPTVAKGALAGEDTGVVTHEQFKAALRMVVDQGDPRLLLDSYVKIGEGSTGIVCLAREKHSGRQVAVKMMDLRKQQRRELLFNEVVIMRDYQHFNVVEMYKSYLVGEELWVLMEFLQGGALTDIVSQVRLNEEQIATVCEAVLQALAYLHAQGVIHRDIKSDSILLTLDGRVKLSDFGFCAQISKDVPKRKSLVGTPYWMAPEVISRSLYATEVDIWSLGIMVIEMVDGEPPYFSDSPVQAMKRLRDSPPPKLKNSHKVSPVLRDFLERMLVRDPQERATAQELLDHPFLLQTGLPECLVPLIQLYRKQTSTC

[4] = target: Serine/threonine-protein kinase pim-1 (Homo sapiens, UniProt P11309); assay: Selectivity interaction (KinomeScan (DiscoverX)) EUB0000695a PIM1; conditions: at 100 nM
Serine/threonine-protein kinase pim-1, sequence (P11309 whole entry, looked up): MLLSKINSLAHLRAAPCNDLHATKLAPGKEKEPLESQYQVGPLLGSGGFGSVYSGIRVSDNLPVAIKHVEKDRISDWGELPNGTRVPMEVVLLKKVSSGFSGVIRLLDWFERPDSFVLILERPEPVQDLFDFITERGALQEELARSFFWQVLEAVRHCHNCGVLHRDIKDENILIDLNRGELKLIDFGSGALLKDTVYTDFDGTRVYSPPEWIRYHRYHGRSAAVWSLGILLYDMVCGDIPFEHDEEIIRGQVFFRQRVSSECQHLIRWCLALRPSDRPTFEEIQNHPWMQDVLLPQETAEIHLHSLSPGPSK

[5] = target: T1, Mitogen-activated protein kinase kinase kinase 2 (Homo sapiens) (UniProt Q9Y2U5); assay: Selectivity interaction (KinomeScan (DiscoverX)) EUB0000695a MAP3K2; conditions: at 100 nM
T1 sequence (whole entry): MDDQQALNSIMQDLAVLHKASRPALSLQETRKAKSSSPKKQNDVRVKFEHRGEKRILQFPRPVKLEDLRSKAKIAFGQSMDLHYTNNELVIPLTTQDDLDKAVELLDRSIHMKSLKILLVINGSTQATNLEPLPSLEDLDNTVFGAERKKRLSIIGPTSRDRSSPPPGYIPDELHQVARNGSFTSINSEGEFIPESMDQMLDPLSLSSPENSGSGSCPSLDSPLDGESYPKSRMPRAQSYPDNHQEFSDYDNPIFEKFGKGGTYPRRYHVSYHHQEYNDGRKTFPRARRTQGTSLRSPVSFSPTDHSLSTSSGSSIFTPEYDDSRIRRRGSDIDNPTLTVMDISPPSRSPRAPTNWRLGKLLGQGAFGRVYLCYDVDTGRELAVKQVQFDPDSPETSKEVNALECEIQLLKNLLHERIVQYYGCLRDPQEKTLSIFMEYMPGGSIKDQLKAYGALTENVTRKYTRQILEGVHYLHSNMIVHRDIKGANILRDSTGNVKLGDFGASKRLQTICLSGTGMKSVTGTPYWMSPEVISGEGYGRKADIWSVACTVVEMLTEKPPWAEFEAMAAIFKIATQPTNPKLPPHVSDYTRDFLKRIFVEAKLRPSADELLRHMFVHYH

[6] = target: Ephrin type-A receptor 7 (Homo sapiens) (UniProt Q15375); assay: Selectivity interaction (KinomeScan (DiscoverX)) EUB0000595a EPHA7; conditions: at 10 µM
[7] = target: T2, Mitogen-activated protein kinase 12 (Homo sapiens) (UniProt P53778); assay: Selectivity interaction (Millipore kinase profiler) EUB0000124b MAPK12; conditions: at 10 µM
T2 sequence (whole entry): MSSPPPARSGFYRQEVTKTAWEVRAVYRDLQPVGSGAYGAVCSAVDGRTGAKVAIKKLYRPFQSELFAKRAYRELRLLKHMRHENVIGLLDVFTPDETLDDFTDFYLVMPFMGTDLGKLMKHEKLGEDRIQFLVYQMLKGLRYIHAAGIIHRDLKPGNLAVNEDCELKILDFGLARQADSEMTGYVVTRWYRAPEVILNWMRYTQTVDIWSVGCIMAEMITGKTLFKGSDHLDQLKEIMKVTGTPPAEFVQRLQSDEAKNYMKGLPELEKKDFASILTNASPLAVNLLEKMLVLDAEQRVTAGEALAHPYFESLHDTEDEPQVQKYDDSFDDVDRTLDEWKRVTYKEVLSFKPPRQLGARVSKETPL

[8] = target: Serine/threonine-protein kinase MARK1 (Homo sapiens) (UniProt Q9P0L2); assay: Selectivity interaction (KinomeScan (DiscoverX)) EUB0000655a MARK1; conditions: at 10 µM
[9] = target: T3, Serine/threonine-protein kinase Nek11 (Homo sapiens) (UniProt Q8NG66); assay: Selectivity interaction (KinomeScan (DiscoverX)) EUB0001079a NEK11; conditions: at 1 µM
T3 sequence (whole entry): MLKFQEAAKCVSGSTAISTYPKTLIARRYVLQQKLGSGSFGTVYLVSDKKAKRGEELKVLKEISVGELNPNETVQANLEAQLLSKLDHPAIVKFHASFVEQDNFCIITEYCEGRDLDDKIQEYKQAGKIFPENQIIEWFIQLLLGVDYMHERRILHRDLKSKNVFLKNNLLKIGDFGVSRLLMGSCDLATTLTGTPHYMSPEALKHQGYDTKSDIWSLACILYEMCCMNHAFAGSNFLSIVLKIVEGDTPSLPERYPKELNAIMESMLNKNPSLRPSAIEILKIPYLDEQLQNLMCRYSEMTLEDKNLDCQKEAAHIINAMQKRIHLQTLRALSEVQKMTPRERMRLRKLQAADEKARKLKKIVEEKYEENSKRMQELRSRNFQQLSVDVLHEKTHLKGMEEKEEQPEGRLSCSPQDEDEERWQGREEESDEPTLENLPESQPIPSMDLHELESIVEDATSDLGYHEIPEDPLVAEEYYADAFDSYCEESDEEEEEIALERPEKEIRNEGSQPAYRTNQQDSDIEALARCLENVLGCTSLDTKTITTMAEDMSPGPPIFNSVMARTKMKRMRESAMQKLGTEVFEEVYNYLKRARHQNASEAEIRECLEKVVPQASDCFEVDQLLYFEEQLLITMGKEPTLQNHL

[10] = target: Cyclin-dependent kinase 6 (Homo sapiens) (UniProt Q00534); assay: Selectivity interaction (Kinase panel (KiNativ target engagement assay in Jurkat cells)) EUB0001635a CDK6; format: cell-based; conditions: Selectivity number of off-targets 0.0, Selectivity number of targets 233.0, Source Knowledge https://www.sciencedirect.com/science/article/pii/S2451945619300674?via%3Dihub, at 1 µM
Cyclin-dependent kinase 6 (Homo sapiens), sequence (Q00534 whole entry): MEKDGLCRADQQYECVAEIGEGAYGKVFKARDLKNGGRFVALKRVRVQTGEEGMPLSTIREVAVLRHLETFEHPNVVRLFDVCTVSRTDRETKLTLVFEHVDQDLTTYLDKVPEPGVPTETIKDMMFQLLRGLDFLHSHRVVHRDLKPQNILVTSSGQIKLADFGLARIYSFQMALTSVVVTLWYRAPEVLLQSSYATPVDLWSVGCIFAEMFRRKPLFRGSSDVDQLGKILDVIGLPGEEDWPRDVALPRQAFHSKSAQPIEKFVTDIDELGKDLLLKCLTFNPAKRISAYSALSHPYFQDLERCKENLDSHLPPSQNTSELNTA

[11] = target: Mitogen-activated protein kinase kinase kinase 4 (Homo sapiens) (UniProt Q9Y6R4); conditions: at 10 µM
Mitogen-activated protein kinase kinase kinase 4 (Homo sapiens), sequence (Q9Y6R4 whole entry): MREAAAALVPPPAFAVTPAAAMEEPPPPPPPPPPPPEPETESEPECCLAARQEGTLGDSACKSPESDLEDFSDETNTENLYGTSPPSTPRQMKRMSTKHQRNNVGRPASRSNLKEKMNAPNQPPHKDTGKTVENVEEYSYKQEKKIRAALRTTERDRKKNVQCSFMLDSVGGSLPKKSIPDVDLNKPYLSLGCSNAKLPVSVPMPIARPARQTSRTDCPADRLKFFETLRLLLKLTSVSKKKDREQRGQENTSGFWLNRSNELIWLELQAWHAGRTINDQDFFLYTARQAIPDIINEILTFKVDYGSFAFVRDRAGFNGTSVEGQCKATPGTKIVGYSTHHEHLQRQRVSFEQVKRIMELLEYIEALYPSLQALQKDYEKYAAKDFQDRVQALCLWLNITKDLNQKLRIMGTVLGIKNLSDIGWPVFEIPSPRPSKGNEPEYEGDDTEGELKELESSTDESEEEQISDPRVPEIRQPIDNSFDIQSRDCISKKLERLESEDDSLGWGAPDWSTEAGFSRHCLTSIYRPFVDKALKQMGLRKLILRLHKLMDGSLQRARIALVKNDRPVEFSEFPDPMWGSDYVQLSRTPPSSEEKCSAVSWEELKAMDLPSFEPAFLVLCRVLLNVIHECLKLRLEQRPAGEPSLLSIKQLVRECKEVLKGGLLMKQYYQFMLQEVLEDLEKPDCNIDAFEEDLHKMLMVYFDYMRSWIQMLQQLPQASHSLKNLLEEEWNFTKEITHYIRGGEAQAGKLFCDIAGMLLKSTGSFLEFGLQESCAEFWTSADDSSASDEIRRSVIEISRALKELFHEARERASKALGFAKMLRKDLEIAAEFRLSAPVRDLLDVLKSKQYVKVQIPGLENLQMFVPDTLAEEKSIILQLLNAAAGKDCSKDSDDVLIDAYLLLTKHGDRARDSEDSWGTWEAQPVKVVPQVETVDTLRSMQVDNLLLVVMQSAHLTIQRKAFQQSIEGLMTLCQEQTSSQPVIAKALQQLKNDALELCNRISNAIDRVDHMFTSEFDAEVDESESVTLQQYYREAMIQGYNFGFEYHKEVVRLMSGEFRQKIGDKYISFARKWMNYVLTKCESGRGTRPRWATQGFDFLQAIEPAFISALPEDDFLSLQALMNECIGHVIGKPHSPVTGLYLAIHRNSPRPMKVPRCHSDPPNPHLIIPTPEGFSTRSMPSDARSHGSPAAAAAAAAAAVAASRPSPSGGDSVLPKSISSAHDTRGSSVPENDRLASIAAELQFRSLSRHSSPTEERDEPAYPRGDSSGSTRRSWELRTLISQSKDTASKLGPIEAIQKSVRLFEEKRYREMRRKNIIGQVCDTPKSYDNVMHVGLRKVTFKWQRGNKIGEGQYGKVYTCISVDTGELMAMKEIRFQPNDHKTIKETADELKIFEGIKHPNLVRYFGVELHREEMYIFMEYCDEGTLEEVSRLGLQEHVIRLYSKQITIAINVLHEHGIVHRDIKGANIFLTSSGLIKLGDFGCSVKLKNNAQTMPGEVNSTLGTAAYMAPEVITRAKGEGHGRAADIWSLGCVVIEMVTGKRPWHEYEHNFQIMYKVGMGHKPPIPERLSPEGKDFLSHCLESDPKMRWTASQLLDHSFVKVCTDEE

[12] = target: Serine/threonine-protein kinase PAK 1 (Homo sapiens) (UniProt Q13153); assay: Selectivity interaction (KinomeScan (DiscoverX)) EUB0000618a PAK1; conditions: at 10 µM
Serine/threonine-protein kinase PAK 1 (Homo sapiens), sequence (Q13153 whole entry): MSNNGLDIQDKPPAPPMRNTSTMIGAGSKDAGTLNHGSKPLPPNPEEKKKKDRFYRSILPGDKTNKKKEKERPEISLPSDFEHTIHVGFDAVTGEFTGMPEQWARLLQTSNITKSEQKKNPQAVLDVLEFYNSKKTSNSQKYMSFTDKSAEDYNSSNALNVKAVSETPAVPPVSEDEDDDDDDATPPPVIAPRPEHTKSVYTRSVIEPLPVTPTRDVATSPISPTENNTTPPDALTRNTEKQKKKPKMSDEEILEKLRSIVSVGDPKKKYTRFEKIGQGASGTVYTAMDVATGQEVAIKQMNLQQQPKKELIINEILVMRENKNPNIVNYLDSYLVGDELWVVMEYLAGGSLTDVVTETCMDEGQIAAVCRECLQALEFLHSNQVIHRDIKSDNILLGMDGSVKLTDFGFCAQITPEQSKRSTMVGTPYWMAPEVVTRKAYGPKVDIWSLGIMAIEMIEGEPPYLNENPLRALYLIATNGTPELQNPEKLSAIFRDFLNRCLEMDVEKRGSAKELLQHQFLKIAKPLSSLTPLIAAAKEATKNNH

Serine/threonine-protein kinase 38-like (Homo sapiens), sequence (Q9Y2H1 2-464 limits assumed): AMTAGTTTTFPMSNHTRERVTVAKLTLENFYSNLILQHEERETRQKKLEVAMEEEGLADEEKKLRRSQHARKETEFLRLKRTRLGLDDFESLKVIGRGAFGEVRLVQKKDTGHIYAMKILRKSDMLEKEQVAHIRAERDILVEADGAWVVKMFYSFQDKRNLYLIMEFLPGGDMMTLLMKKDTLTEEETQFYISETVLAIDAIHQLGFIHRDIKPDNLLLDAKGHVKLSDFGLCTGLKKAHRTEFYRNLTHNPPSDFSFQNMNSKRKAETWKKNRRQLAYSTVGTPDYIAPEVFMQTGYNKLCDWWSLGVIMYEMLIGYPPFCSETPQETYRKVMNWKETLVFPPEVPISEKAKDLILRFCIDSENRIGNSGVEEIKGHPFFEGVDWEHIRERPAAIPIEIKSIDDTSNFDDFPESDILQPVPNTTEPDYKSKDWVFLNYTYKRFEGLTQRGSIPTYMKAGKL
Ribosomal protein S6 kinase alpha-5 (Homo sapiens), sequence (O75582 whole entry, looked up): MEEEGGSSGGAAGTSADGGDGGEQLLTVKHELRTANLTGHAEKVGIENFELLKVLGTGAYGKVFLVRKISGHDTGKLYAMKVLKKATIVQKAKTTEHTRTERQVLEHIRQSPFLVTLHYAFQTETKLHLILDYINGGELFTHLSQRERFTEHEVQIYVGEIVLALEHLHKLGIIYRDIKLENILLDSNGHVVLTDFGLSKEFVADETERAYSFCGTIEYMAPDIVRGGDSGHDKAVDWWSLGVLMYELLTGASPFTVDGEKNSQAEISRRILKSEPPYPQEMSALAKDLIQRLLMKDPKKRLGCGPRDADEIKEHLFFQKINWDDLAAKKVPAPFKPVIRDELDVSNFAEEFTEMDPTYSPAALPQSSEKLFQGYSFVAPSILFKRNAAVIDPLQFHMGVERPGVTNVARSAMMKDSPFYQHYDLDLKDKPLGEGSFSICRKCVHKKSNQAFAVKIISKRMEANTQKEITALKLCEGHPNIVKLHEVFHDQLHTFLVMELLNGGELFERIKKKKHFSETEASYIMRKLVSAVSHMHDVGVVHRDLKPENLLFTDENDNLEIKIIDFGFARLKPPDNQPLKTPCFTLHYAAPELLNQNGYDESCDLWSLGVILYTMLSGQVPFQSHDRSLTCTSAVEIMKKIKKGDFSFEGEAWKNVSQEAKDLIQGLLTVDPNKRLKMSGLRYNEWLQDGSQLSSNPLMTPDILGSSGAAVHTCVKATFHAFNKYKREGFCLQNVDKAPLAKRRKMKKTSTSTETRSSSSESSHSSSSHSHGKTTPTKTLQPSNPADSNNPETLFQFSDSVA

## Cc1ccc(-c2ccc3c(ccc4sc5c(c43)NC[C@@H](C)NC5=O)n2)cn1
[1]
  % of inhibition: -9%

## CC[C@@H]1[C@H](F)C(=O)N[C@@H]1COc1nccc2cc(C(N)=O)c(OC)cc12 [ZIMLOVISERTIB]
[2]; at 0.01 µM
  % of inhibition: 5.2%
[2]; at 0.04 µM
  % of inhibition: -2%
[2]; at 0.2 µM
  % of inhibition: 12%
[2]; at 1 µM
  % of inhibition: 51.5%
[2]; at 5 µM
  % of inhibition: 82.9%
[3]
  % of inhibition: 5.16%

## Cc1cc(F)c(C(=O)Nc2cccc(-c3nncn3C(C)C)n2)cc1-n1cnc(C2CC2)c1
[4]
  % of control: 100%
[5]
  % of control: 100%

## COCC(=O)NC/C=C/c1ccc2ncnc(Nc3ccc(Oc4ccc(C)nc4)c(C)c3)c2c1 [CP-724714]
[6]
  % of control: 100%

## CC(=O)Nc1cccc(-n2c(=O)n(C3CC3)c(=O)c3c(Nc4ccc(I)cc4F)n(C)c(=O)c(C)c32)c1
[7]
  % of control: 97%

## CN(C)CCOc1ccc(-c2nc(-c3ccncc3)c(-c3ccc4c(c3)CC/C4=N\O)[nH]2)cc1
[8]
  % of control: 100%

## Nc1cnc(N2CCc3cc(S(=O)(=O)Nc4c(F)cc(Cl)cc4F)cc(N4CCCC4=O)c32)nc1 [TP-020n]
[9]
  % of control: 100%

## C=CC(=O)Nc1ccc(C(=O)Nc2[nH]nc3c2CN(C(=O)N[C@H](CN(C)C)c2ccccc2)C3(C)C)cc1
[10]
  % of engagement: -8.6%

## Cc1cc([C@@H](C)Nc2ccccc2C(=O)O)c2nc(N3CCOCC3)cc(=O)n2c1 [AZD-6482]
[11]
  % of control: 100%

## O[C@H]1CC[C@H](Nc2ncc3nc(Nc4c(F)cc(F)cc4F)n([C@H]4CCOC4)c3n2)CC1
[12]
  % of control: 99%

— ChEMBL document CHEMBL5465560, “Selectivity Literature for EUbOPEN Chemogenomic Library” (2024)
